Patent publication US9732298B2, “Process for the treatment of liquefied hydrocarbon gas using 3-(amino) propane-1,2-diol compounds” (Dow Global Technologies LLC, priority 2012, dated 2017)

Assay: pKa by automated Mettler Toledo titration
Format: physicochemical
Settings: aqueous amine solution; 50 weight % aqueous amine solutions titrated with 0.5 N hydrochloric acid

Compared with NCC(O)CO (stereo not drawn) [APD], CNCC(O)CO (stereo not drawn) [MAPD] is higher in pKa: 9.3 for the first, 9.7 for the second.

With CN(CCO)CC(O)CO (stereo not drawn) [HEMAPD] the pKa was 8.5.

Assay: Solubility of tested amine in heptane phase by gas chromatography (toluene internal standard)
Settings: GC peak area of tested amine in neat heptane phase; heptane 10 g, toluene 0.1 g, amine 2.5 g, mixed at 20° C. for 1 hour, decanted 15 minutes; average of three injections
Experimental: A solution of heptane (10 g), toluene (0.1 g) and the tested amine (2.5 g) are mixed at 20° C. for 1 hours. The mixture is decanted for 15 minutes and the neat heptane phase is analyzed by gas chromatography using toluene as internal standard. The injection is repeated three times and peak areas of tested amine are averaged.

First: NCC(O)CO (stereo not drawn) [APD]
Second: CNCC(O)CO (stereo not drawn) [MAPD]
The area counts of the first is lower: 0 counts for the first, 176 counts for the second.

Work on CN(CCO)CC(O)CO (stereo not drawn) [HEMAPD] yielded an area counts of 290 counts.
